Results reported in patent US20050112607A1, “Rapid and sensitive detection of protein aggregation” (priority 1999, published 2005).

Tests used:
[1] = test system: histidine-tagged RGD-motif-containing peptide; assay: Colloid/colloid color change assay with RGD-peptide-bound NTA-Ni colloids; assay type: binding; conditions: 100 ul or 50 ul protein per well, room temperature, after approximately 15 minutes
Procedure: (§1) 600 microliters colloids, derivatized with a self-assembled monolayer that presents nitrilo tri-acetic acid, NTA (for the capture of histidine-tagged proteins), was mixed with 60 microliters of 500 micromolar histidine-tagged RGD-motif-containing peptide. 600 microliters of a second set of NTA-Ni presenting colloids was mixed with 60 ul of a 500 uM solution of GST, an irrelevant protein, as a negative control. Colloids were spun down and resuspended in phosphate buffer to remove residual unbound protein or peptide. Endostatin and Angiostatin, two proteins implicated in angiogenesis and suspected of binding to regions of vitronectin, such as the RGD peptide, were prepared by dialysis into phoshate-buffered saline solution and then 1:10 dilution into PBS from a stock concentration of 1 mg/mL.
(§2) 400 ul phosphate buffer (pH 7.4), 200 ul either RGD-bound colloids or GST-bound colloids, and either 100 ul endostatin or angiostatin, 50 ul endostatin or angiostatin/50 ul phosphate buffer, or 100 ul phosphate buffer (as a negative control) were added to each well of a crystallization dish. Color change was monitored over time at room temperature. […] The histidine-tagged proteins were then eluted using imidazole, and the samples were analyzed by SDS-PAGE. […]

[2] = test system: resin-immobilized RGD peptide; assay: NTA-Ni agarose resin binding, imidazole elution, SDS-PAGE (RGD peptide)
Procedure: (§3) 400 ul phosphate buffer (pH 7.4), 200 ul either RGD-bound colloids or GST-bound colloids, and either 100 ul endostatin or angiostatin, 50 ul endostatin or angiostatin/50 ul phosphate buffer, or 100 ul phosphate buffer (as a negative control) were added to each well of a crystallization dish. Color change was monitored over time at room temperature. […] The color change was more pronounced in the well that contained 100 ul endostatin than in the well that contained 50 ul endostatin/50 ul phospate buffer. […] Row A included colloids and angiostatin. Row B included colloids with endostatin. (Rows C and D are empty wells). Columns 1-3 have RGD peptide immobilized on the colloids. […] have an irrelevant protein, GST, immobilized on the colloid. Columns 1 and 4 contain […] of the relevant drug (endostatin or angiostatin). […] The results were verified by gel electrophoresis. The RGD peptide and histidine-tagged GST were bound to a small amount of NTA-Ni agarose resin at saturating concentration. Endostatin was incubated with the resin and allowed to bind to the protein on the resin. The histidine-tagged proteins were then eluted using imidazole, and the samples were analyzed by SDS-PAGE. […] This assay could be easily adapted for screening of drug candidates that either mimic the RGD-binding characteristic of endostatin or bind to the RGD-binding domains on endostatin. […]

GST = GST (Schistosoma japonicum, UniProt P08515); assay: Colloid/colloid color change assay with GST-bound NTA-Ni colloids (irrelevant protein); assay type: binding; conditions: 100 ul or 50 ul protein per well, room temperature
Sequence of GST (P08515 whole entry): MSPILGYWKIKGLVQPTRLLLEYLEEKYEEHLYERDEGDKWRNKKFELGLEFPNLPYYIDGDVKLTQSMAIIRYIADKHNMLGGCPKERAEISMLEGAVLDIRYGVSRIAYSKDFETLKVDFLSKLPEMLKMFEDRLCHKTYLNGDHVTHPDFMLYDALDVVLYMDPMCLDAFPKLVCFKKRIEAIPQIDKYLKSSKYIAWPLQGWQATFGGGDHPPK
Procedure: as §1, §2

resin-immobilized GST = resin-immobilized GST (Schistosoma japonicum, UniProt P08515); assay: NTA-Ni agarose resin binding, imidazole elution, SDS-PAGE (GST)
Sequence of resin-immobilized GST (P08515 whole entry): as above
Procedure: as §3

[3] = Colloid/colloid linkage via biotin/streptavidin, color change; assay type: binding; conditions: streptavidin added to biotin-SAM colloids
Procedure: A set of gold colloids was derivatized with self-assembled monolayers that incorporated biotin-thiols (SAM forming species included C11, 3 ethylene glycol units, then biotin) along with C16 carboxy-terminated thiols (a mixed SAM). Streptavidin, which has four binding sites for biotin, or a random protein (GST) was added to the colloid solutions.

endostatin
Color change from red to blue of RGD-peptide-bound colloids [1]: a color change from red to blue was visible | Binding to resin-immobilized RGD peptide (SDS-PAGE) [2]: bound to the resin-immobilized RGD peptide | Color change of GST-bound colloids (GST): No color change occurred | Binding to resin-immobilized GST (SDS-PAGE) (resin-immobilized GST): did not bind to the resin-immobilized GST

Streptavidin
Color change of biotin-presenting colloid solution [3]: immediately turned blue

angiostatin
Color change from red to blue of RGD-peptide-bound colloids [1]: No color change occurred | Color change of GST-bound colloids (GST): No color change occurred
